Measurements as given in publication doi:10.1101/2025.03.14.643303, “A genome-scale drug discovery pipeline uncovers new therapeutic targets and a unique p97 allosteric binding site in Schistosoma mansoni” (bioRxiv, 2025).
Where two headings read alike, the source gives them in different places.

Experiments:
HepG2 cells = test: HepG2 cytotoxicity assay (Cell Titer Glo 2.0); format: cell-based, human; settings: Homo sapiens
Protocol: HepG2 cells (ATCC) were plated at 2500 cells/well in 50 μL/well, dispersing cells using a 25g needle to break up clumps prior to plating. Plates were incubated for 24hr at 37C, 5% CO2. Following 24hr, 50 μL media containing 0.6% DMSO was added to a set of wells on one plate. The plate and Cell Titer Glo 2.0 reagent were brought to RT. A T=0 read was taken by adding 40 μL reagent/well, rocking the plate at 100 rpm for 2 min, then reading luminescence ~10 min later. […] 50 μL 2x concentrated compound was added to wells containing cells in 50 μL 24 hr after plating. Concentrations were tested in triplicate at following values: 30, 10, 3.3, 1.1, 0.37, 0.12, and 0.04 μM. Plates were incubated for 72 hr at 37C, 5% CO2. Following equilibration to room temperature, 40 μL undiluted reagent was added to each well, the plate rocked at 100 rpm for 2 min and then read for luminescent signal ~10 min later.
Values are plotted in excel and the 50% point determined by interpolation. Values were revisualized in Prism.

adult S. mansoni worms = test: Treatment of adult S. mansoni worms in culture with inhibitors (attachment to tissue culture substrate, morphology; single 10 μM and dose-response EC50); format: cell-based, Schistosoma mansoni; settings: for EC50: Schistosoma mansoni; for effect on adult worms: benzoxazole propiolamide series, treated 72 hours, monitored until D5
Protocol: Adult S. mansoni (NMRI strain) (6–7 weeks post-infection) worms were harvested from infected female Swiss Webster mice by hepatic portal vein perfusion using 37°C DMEM (Mediatech, Manassas, VA), 8% Horse Serum, and heparin.
Roughly 5 adult worm pairs were placed in 3mL Basch medium in a 12-well culture vessel, and incubated at 37°C, 5% CO2 for the length of the experiment. Compound was administered at D0, D1, and D2, media and drug refreshed every 24 hr. Worms were then allowed to remain in culture until D5, where a final assessment of worm attachment to tissue culture substate was made by light microscopy. Observations on movement and morphology were also recorded. A negative control (0.1% DMSO) and positive control (PZQ; 10 μM in 0.1% DMSO) were included in each experiment, and each experiment was repeated in triplicate for validation. For compounds that caused complete detachment in replicate experiments, the treatment was expanded to three concentrations (10 μM, 5 μM, and 1 μM) following the same treatment schedule and controls as detailed above. […] Each titration experiment was performed in triplicate according to the treatment regimen described above, using DMSO and PZQ as appropriate controls. Morphologies and motility were assessed by light microscopy, and dose-response curves were calculated using the primary readout of parasite attachment to tissue culture substrate in GraphPad Prism. […]
[…] Values were calculated using Prism.

H. sapiens p97 (P55072) = target: T1, H. sapiens p97 (P55072) (Homo sapiens, UniProt P55072); test: p97 ATPase activity, ATP consumption assay (Kinase-Glo), IC50 / counter screen; format: biochemical; settings: Hs p97; 100 μM – 1 nM; Suppl. Fig. 9C
T1 construct: 6xHis (C); made in house; host or cells: E. coli BL21 (DE3)

[1] = target: S. mansoni p97 (Smp_018240) (Schistosoma mansoni, UniProt G4M0P7); test: biochemical; settings: for Fold Selectivity: H. sapiens vs S. mansoni p97 IC50; for Fold Selectivity / IC50: Suppl. Fig. 9C; for IC50: Sm p97, 100 μM – 1 nM, read-out: S. mansoni IC50; for activity on the enzyme: schistosome p97
Protocol: E. coli BL21 (DE3) containing the desired plasmid were grown in LB medium containing […] kanamycin while shaking at 37 °C to an OD600 of 0.6–0.8. The temperature was reduced to 18°C and 0.8 mM isopropyl-beta-D-thiogalactopyranoside (IPTG) was added. The bacterial culture was harvested 16hr later by centrifugation. The resulting pellet was suspended in 60 mL lysis buffer/2L bacterial culture [20 mM Tris (pH 7.4), 300 mM NaCl, 5 mM MgCl2, 20 mM imidazole, 1% Triton X-100, 1 mg/mL lysozyme, 10% glycerol, 3 mM β-mercaptoethanol, 0.2 mM PMSF, and protease inhibitor tablet (Roche)]. […] The lysate was centrifuged at 40,000 × rpm for 35 min at 4°C. The resulting supernatant was incubated with Ni-NTA beads equilibrated to lysis buffer for 1 hr at 4°C before being loaded onto a gravity column. The bead bed was washed with wash buffer [20 mM Tris (pH 7.4), 500 mM NaCl, 5 mM MgCl2, 40 mM imidazole, 0.05% Triton X-100, 10% glycerol, 3 mM β-mercaptoethanol, 0.2 mM PMSF, 0.001 mg/mL Aprotinin, and 0.002 mg/mL Leupeptin], then eluted in the same buffer with 250 mM imidazole in wash buffer. Fractions containing p97 were concentrated using Pierce Protein Concentrators (100k MWCO) and loaded onto a gel-filtration column (Superdex 200PG) and eluted using SEC buffer [20 mM Tris (pH 7.4), 180 mM NaCl, 5 mM MgCl2, and 10% glycerol] at 0.5 mL/min flow rate on a BioRad NGC Chromatography System. Fractions corresponding to an apparent molecular weight of 500 – 600 kDa were collected and analyzed by 4–20% SDS/PAGE to evaluate purity. Concentration was determined using a BSA standard. Fractions containing purified protein were aliquoted, snap frozen in liquid nitrogen, and stored at −80 °C until use.
For manual ATP consumption assays, 1 μM p97 was incubated with 1% DMSO or inhibitor (1% DMSO final) in assay buffer [50 mM Tris (pH 7.5), 20 mM MgCl2, 1 mM EDTA, 0.5 mM tris(2-carboxyethyl)phosphine (TCEP)] for 5 minutes prior to the addition of 20 μM ATP in a 384-well plate for a total reaction volume of 10 μL, and a final concentration of 500nM enzyme and 10 μM ATP. The reaction was allowed to proceed for 50 minutes at room temperature before adding equivalent volume of Kinase-Glo Plus reagent (Promega), and a further incubation of 10 minutes in the dark.
IC50 values were calculated using GraphPad Prism.

[2] = adult parasites, fraction of worms attached, 72 hours of drug treatment, in culture until D5, 50 μM - 10 nM, Suppl. Fig. 9C, read-out: S. mansoni EC50
[3] = adult worms, MEK1 inhibitor, read-out: EC50

T1 sequence (P55072 whole entry): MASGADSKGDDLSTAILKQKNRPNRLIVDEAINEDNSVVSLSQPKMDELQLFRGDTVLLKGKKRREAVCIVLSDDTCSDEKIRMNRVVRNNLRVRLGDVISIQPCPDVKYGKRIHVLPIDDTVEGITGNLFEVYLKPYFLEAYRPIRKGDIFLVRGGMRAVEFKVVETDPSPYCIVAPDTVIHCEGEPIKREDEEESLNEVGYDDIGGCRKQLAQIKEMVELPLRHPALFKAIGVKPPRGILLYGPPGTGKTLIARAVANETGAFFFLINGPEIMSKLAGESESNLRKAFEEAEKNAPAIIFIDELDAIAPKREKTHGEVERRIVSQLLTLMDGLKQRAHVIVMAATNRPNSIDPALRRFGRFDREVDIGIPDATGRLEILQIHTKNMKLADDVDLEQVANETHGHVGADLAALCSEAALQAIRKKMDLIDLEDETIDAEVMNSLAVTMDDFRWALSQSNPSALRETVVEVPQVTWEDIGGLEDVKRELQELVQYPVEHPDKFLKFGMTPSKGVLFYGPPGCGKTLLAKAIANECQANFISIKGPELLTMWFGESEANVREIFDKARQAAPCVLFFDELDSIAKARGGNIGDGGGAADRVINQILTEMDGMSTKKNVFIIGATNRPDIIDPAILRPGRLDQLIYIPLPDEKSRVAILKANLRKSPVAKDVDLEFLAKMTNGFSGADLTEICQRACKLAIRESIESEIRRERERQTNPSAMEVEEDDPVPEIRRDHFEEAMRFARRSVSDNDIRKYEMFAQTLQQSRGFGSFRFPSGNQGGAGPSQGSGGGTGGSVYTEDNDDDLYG
Sequence of S. mansoni p97 (Smp_018240) (G4M0P7 entry or part of it): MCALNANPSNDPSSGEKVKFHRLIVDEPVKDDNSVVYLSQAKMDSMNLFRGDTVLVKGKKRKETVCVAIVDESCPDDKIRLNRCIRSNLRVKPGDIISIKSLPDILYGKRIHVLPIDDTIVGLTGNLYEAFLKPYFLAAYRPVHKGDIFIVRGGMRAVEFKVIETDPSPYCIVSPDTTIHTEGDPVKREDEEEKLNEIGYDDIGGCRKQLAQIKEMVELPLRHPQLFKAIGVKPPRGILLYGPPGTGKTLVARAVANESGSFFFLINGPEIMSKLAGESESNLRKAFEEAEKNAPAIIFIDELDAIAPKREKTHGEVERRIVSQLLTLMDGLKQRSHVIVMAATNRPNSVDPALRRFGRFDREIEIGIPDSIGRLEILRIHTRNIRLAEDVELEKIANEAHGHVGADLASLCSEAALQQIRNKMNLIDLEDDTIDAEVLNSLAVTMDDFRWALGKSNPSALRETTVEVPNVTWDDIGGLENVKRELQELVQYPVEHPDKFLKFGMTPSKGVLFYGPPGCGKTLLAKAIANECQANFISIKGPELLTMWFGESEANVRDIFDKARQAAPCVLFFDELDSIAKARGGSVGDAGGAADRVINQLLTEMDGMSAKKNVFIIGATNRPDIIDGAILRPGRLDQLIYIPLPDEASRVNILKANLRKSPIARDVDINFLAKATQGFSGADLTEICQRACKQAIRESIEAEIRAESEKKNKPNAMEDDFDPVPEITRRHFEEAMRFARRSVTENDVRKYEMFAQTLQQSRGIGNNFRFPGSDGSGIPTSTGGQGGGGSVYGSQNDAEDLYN

| SMILES | EC50 (adult S. mansoni worms; [2]) [nM] | IC50 (H. sapiens p97 (P55072)) [nM] | Fold Selectivity [1] | IC50 [1] [nM] | effect on adult worms (adult S. mansoni worms; 10 μM) | activity on the enzyme [1] | also measured |
| --- | --- | --- | --- | --- | --- | --- | --- |
| Cc1ccnc(-c2nc3cc(NC(=O)C#Cc4ccncc4)ccc3o2)c1 [Compound 805, N-(2-(4-methylpyridin-2-yl)benzo[d]oxazol-5-yl)-3-(pyridin-4-yl)propiolamide] | 2000 | 140 ± 78 | 0.80 | 170 ± 92 | – | – | GI50 (HepG2 cells; HepG2, 72 h): 1200 nM; IC50 (HepG2 cells; HepG2, 72 h): 1600 nM; GI50 (HepG2 cells; HepG2, read-out: HepG2 GI50): 1200 nM; IC50 (HepG2 cells; HepG2, read-out: HepG2 IC50): 1600 nM |
| O=C(C#Cc1ccccn1)Nc1ccc2oc(-c3ccccn3)nc2c1 [Compound 737, 3-(pyridin-2-yl)-N-(2-(pyridin-2-yl)benzo[d]oxazol-5-yl)propiolamide] | 22000 | 13000 ± 2200 | 4.3 | 3000 ± 410 | decreased activity on the worms | decreased potency on the enzyme | – |
| Cc1ccc(-c2nc3cc(NC(=O)C#Cc4ccncc4)ccc3o2)nc1 [Compound 806, N-(2-(5-methylpyridin-2-yl)benzo[d]oxazol-5-yl)-3-(pyridin-4-yl)propiolamide] | 3200 | 510 ± 160 | 1.1 | 470 ± 170 | – | – | GI50 (HepG2 cells; HepG2, 72 h): 1500 nM; IC50 (HepG2 cells; HepG2, 72 h): 1800 nM; GI50 (HepG2 cells; HepG2, read-out: HepG2 GI50): 1500 nM; IC50 (HepG2 cells; HepG2, read-out: HepG2 IC50): 1800 nM |
| CC(=O)Nc1cccc(-n2c(=O)n(C3CC3)c(=O)c3c(Nc4ccc(I)cc4F)n(C)c(=O)c(C)c32)c1 [Trametinib, reference compound] | – | – | – | – | – | – | EC50 (adult S. mansoni worms; [3]): 650 nM |
| CN(C)CCc1nnc2cc(-c3ccccc3)c3cc(Cl)ccc3n12 [PF-9366, reference compound] | – | – | – | – | – | – | EC50 (adult S. mansoni worms): 43000 nM |
| O=C(NOC[C@H](O)CO)c1ccc(F)c(F)c1Nc1ccc(I)cc1F [Mirdametinib, reference compound] | – | – | – | – | – | – | EC50 (adult S. mansoni worms; [3]): > 50000 nM |
| O=C(C#Cc1cccnc1)Nc1ccc2oc(-c3ccccn3)nc2c1 [Compound 738, N-(2-(pyridin-2-yl)benzo[d]oxazol-5-yl)-3-(pyridin-3-yl)propiolamide] | 3500 | 780 ± 140 | 1.9 | 420 ± 57 | death of the parasites | – | time to detachment of adult worms in culture (adult S. mansoni worms; 10 μM): ≤ 24 h |
| O=C(C#Cc1ccc(Cl)cc1)Nc1ccc2oc(-c3ccccn3)nc2c1 [Compound 736, 3-(4-chlorophenyl)-N-(2-(pyridin-2-yl)benzo[d]oxazol-5-yl)propiolamide] | 12000 | 6700 ± 55 | 1.1 | 5900 ± 1300 | decreased activity on the worms | decreased potency on the enzyme | – |
| Cc1cccc(-c2nc3cc(NC(=O)C#Cc4ccncc4)ccc3o2)n1 [Compound 807, N-(2-(6-methylpyridin-2-yl)benzo[d]oxazol-5-yl)-3-(pyridin-4-yl)propiolamide] | 1800 | 490 ± 57 | 0.70 | 670 ± 170 | – | – | GI50 (HepG2 cells; HepG2, 72 h): 1100 nM; IC50 (HepG2 cells; HepG2, 72 h): 1400 nM; GI50 (HepG2 cells; HepG2, read-out: HepG2 GI50): 1100 nM; IC50 (HepG2 cells; HepG2, read-out: HepG2 IC50): 1400 nM |
| COc1ccc(C#CC(=O)Nc2ccc3oc(-c4ccccn4)nc3c2)cc1 [Compound 734, 3-(4-methoxyphenyl)-N-(2-(pyridin-2-yl)benzo[d]oxazol-5-yl)propiolamide] | 7000 | 83000 ± 6500 | 1.7 | 48000 ± 2600 | decreased activity on the worms | decreased potency on the enzyme | – |
| Cc1cccnc1-c1nc2cc(NC(=O)C#Cc3ccncc3)ccc2o1 [Compound 804, N-(2-(3-methylpyridin-2-yl)benzo[d]oxazol-5-yl)-3-(pyridin-4-yl)propiolamide] | 760 | 140 ± 62 | 0.70 | 190 ± 63 | – | – | GI50 (HepG2 cells; HepG2, 72 h): 930 nM; IC50 (HepG2 cells; HepG2, 72 h): 1200 nM; GI50 (HepG2 cells; HepG2, read-out: HepG2 GI50): 930 nM; IC50 (HepG2 cells; HepG2, read-out: HepG2 IC50): 1200 nM |
| O=C(C#Cc1cccc(Cl)c1)Nc1ccc2oc(-c3ccccn3)nc2c1 [Compound 735, 3-(3-chlorophenyl)-N-(2-(pyridin-2-yl)benzo[d]oxazol-5-yl)propiolamide] | 4200 | 7300 ± 660 | 0.70 | 11000 ± 470 | still active on worms | abolishing activity on the enzyme | – |
| O=C(N[C@@H](C1CC1)C(F)(F)F)c1cc(-c2cnn3cc(-c4ccc(F)cc4)cnc23)cs1 [ULK-101, reference compound] | – | – | – | – | – | – | time in which inhibitor killed parasites (adult S. mansoni worms; initial concentration of 10 μM): ≤ 24 h |
| Nc1nc(=O)n(-c2ccccc2Cl)c2nc(C(F)(F)F)ccc12 [IDE397, reference compound] | – | – | – | – | – | – | EC50 (adult S. mansoni worms): > 50000 nM |
| O=C(C#CC1CC1)Nc1ccc2oc(-c3ccccn3)nc2c1 [Compound 732, 3-cyclopropyl-N-(2-(pyridin-2-yl)benzo[d]oxazol-5-yl)propiolamide] | 1300 | – | – | > 100000 | still active on worms | abolishing activity on the enzyme | – |
